From patent publication US8741954B2, “Synergistic enhancement of calcium propionate” (ViraTox, L.L.C., priority 2007, dated 2014)

Legend:
[1] = tested on: Aspergillus niger (ATCC #6275), Chaetomium globosum (ATCC #6205) and Aspergillus terreus (ATCC #10690) suspensions; experiment: TAPPI T 487 pm-99 fungal resistance of treated paper; format: cell-based; conditions: treated Whatman paper coupons, 28° C., 21 day test, observed weekly
Experimental: This method is used to determine the resistance of paper and paperboard to fungal growth in ideally suited controlled conditions of light, temperature, moisture, and food supply. Treated 50 mm test coupons of paper are placed on a surface of test agar, flooded with a test inoculum of fungal spores, and incubated to determine fungal resistance. The rating that is provided follows an established protocol to determine the degree of mold growth on a rating scale reported as 1) not fungal resistant; 2) moderately fungal resistant; and 3) resistant.
Challenges of treated porous surfaces, represented by selected samples of untreated paper product specified as Whatman filter paper #4 and paper product specified as Whatman filter paper #4 treated with a solution of fungicides, are exposed to designated fungal suspensions known to cause failure under certain use conditions. The test samples are prepared according to T 487 pm-99 by aseptically removing pre-sterilized 50 mm paper coupons, previously equilibrated to room temperature, and then placed in a controlled chamber at 28+/−1° C. (82.40 F) and 95%-98% RH. The chamber is fitted with a tray filled with a salt solution to maintain humidity control. The test ensues continuously for 21 days and samples are observed weekly. The panels are rated each week according to the appearance of fungal growth.
This series of tests according to the TAPPI T 487 pm-99 protocol were conducted with multiple specimens of treated and untreated (Control) paper substrates with the specified fungal species of Aspergillus niger (ATCC #6275), Chaetomium globosum (ATCC #6205), and Aspergillus terreus (ATCC #10690) suspensions. The suspensions of inoculum were harvested from 14 day potato dextrose agar cultures into sterile water, combining the culture suspensions from each fungal genus and adjusting to concentrations of 10^6/ml. Triplicate substrate samples were then prepared from sheets of cellulose fiber papers (Whatman) cut into 50 mm squares and steam sterilized. The sterilized paper coupons were immersed in a solution of each challenge solution, allowed to soak for ten minutes, removed and placed into aluminum drying trays in a drying oven for 24 hours at 67° C. The test papers were placed onto the surface of prepared agar plates containing mineral-salt agar as outlined in T 487 pm-99. Two plies of paper were treated as a single test specimen and were directly pipetted with 1 ml of fungal suspension on the surface of each test coupon. The plates were then inverted and placed into humid incubation chambers and incubated at 28° C.+/−1 C for 21 days. Observations for growth were conducted on successive weekly schedules as well as verification of test inocula to distinguish contaminants or naturally occurring molds from actual challenge organisms. Growth was defined as sporulating, hyphael appearances directly from the paper substrate. The following comparative table depicts the various solutions and resistance results: […]

[2] = tested on: suspension of fungal spores of Chaetomium globosum ATCC #6205, Aspergillus niger ATCC #6275 and Aspergillus terreus ATCC #10690; experiment: Disk diffusion method of determining susceptibility of fungi (developed from the Kirby-Bauer method); format: cell-based
Experimental: A disk diffusion method of determining susceptibility of fungi to Maquat 2525M 50% was developed from the Kirby-Bauer Bactericidal Disk Diffusion Method. […] This method was utilized as a screening method to achieve a rapid means of fungal inhibition after 5 days of incubation.
The inoculum was composed of a suspension of fungal spores harvested from one week cultures of ATCC #6205-Chaetomium globosum; ATCC #6275-Aspergillus niger; and, ATCC #10690-Aspergillus terreus. Once the plates were seeded with inoculum, DIFCO Concentration Disks (¼″) were impregnated with a 0.5% solution of Maquat 2525M 50%, allowed to air dry in sterile petri dishes and placed at equidistant locations on each plate. At the end of the five day incubation at 30° C., 5 plates containing four disks each were examined visually and microscopically.

| Structure (SMILES) | Days in Incubation [1] | Resistance Grade [1] | Resistance grade of specimens ([2]; DIFCO disks impregnated with solution (Maquat 0.5%, calcium propionate 2.5%, sodium carboxymethylcellulose 0.5%, cetylpyridinium chloride 0.125%), potato dextrose agar, 5 days at 30° C.) | Growth on disks, visual and microscopic examination ([2]; after the 5 day incubation period) |
| --- | --- | --- | --- | --- |
| CCC(=O)O [1.5% propionic acid, propionic acid] | 9 days | Not resistant | – | – |
| CCCCCCCCCCCCCCCC[n+]1ccccc1 [1.25% cetylpyridinium chloride, cetylpyridinium chloride] | 15 days | – | – | – |
| c1ccc2[nH]c(-c3cscn3)nc2c1 [Thiabendazole (TBZ) 1.0% Merck AgVet, Thiabendazole] | 17 days | Moderately resistant | – | – |
| CCC(=O)[O-].CCC(=O)[O-].[Ca+2] [calcium propionate] | 8 days | Not resistant | No Resistance | occluded with profuse growth |
